Paper PMC3810934 (Emerging Infectious Diseases, 2013)
Like-named read-outs stand apart in the source and are kept apart here.

Legend:
[1] = molecular target: A/Anhui/1/2013 (E2/S1) virus isolate neuraminidase (Influenza A virus (A/Anhui/1/2013(H7N9)), UniProt A0A024E3Q2); type: biochemical; settings: pH 6.5
[2] = molecular target: A/Anhui/1/2013 (E2/S1) virus isolate neuraminidase (Influenza A virus (A/Anhui/1/2013(H7N9)), UniProt A0A024E3Q2); type: biochemical; settings: pH 5.1
[3] = molecular target: T1, Oseltamivir-sensitive A/Washington/01/2007 neuraminidase (Influenza A virus (H3N2), UniProt A7UPN3); type: biochemical; settings: pH 6.5
[4] = molecular target: T2, Oseltamivir-sensitive A/California/12/2012 neuraminidase (Influenza A virus (H1N1pdm09), UniProt R4SI91); type: biochemical; settings: pH 6.5
[5] = molecular target: T1, Oseltamivir-sensitive A/Washington/01/2007 neuraminidase; assay: biochemical
[6] = molecular target: T2, Oseltamivir-sensitive A/California/12/2012 neuraminidase; type: biochemical; settings: pH 5.1
A/Shanghai/1/2013 virus = settings: cited from earlier work

SMILES | IC50 [1] | IC50 [2] | IC50 ([1]; read-out: IC50) | IC50 [3] | IC50 [4] | IC50 ([2]; read-out: IC50) | IC50 ([5]; pH 5.1, read-out: IC50) | IC50 [6] | IC50 [5] | Susceptibility on the basis of NI assay data (A/Shanghai/1/2013 virus)
CO[C@@H]([C@@H]1OC(C(=O)O)=C[C@H](NC(=N)N)[C@H]1NC(C)=O)[C@H](O)CO [Laninamivir, laninamivir] | 460 pM | 1290 pM | – | – | – | – | – | – | – | –
CCC(CC)[C@H](NC(C)=O)[C@@H]1[C@H](O)[C@@H](C(=O)O)C[C@H]1N=C(N)N [Peramivir, peramivir] | – | – | 60 pM | 80 pM | 60 pM | 120 pM | 100 pM | 70 pM | – | –
CC(=O)N[C@H]1[C@H]([C@H](O)[C@H](O)CO)OC(C(=O)O)=C[C@@H]1N=C(N)N [Zanamivir, zanamivir] | 330 pM | 1000 pM | – | – | – | – | – | – | 450 pM | susceptible
